Results: patent US9458110B2, “Phenylpyrazole derivatives as potent ROCK1 and ROCK2 inhibitors” (BRISTOL-MYERS SQUIBB COMPANY, priority 2013, dated 2016)

Tests used:
ROCK1 = ROCK1 (Homo sapiens (Human), UniProt Q13464); test: ROCK assay (Caliper LABCHIP peptide phosphorylation), ROCK1; format: biochemical; conditions: 5 μM ATP, 1.5 μM peptide substrate;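 also: Read-out is separation of phosphorylated from unphosphorylated peptide, with kinase activity inhibition computed at every concentration of a dose-response series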
ROCK2 = ROCK2 (Homo sapiens (Human), UniProt O75116); test: ROCK assay (Caliper LABCHIP peptide phosphorylation), ROCK2; format: biochemical; conditions: 5 μM ATP, 1.5 μM peptide substrate;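 also: reaction stopped with EDTA, then phosphorylated and unphosphorylated peptide resolved by microfluidic electrophoresis, kinase inhibition computed at each compound concentration in dose-response series, DMSO under 2%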
Sequence of ROCK2 (O75116 whole entry, species assumed): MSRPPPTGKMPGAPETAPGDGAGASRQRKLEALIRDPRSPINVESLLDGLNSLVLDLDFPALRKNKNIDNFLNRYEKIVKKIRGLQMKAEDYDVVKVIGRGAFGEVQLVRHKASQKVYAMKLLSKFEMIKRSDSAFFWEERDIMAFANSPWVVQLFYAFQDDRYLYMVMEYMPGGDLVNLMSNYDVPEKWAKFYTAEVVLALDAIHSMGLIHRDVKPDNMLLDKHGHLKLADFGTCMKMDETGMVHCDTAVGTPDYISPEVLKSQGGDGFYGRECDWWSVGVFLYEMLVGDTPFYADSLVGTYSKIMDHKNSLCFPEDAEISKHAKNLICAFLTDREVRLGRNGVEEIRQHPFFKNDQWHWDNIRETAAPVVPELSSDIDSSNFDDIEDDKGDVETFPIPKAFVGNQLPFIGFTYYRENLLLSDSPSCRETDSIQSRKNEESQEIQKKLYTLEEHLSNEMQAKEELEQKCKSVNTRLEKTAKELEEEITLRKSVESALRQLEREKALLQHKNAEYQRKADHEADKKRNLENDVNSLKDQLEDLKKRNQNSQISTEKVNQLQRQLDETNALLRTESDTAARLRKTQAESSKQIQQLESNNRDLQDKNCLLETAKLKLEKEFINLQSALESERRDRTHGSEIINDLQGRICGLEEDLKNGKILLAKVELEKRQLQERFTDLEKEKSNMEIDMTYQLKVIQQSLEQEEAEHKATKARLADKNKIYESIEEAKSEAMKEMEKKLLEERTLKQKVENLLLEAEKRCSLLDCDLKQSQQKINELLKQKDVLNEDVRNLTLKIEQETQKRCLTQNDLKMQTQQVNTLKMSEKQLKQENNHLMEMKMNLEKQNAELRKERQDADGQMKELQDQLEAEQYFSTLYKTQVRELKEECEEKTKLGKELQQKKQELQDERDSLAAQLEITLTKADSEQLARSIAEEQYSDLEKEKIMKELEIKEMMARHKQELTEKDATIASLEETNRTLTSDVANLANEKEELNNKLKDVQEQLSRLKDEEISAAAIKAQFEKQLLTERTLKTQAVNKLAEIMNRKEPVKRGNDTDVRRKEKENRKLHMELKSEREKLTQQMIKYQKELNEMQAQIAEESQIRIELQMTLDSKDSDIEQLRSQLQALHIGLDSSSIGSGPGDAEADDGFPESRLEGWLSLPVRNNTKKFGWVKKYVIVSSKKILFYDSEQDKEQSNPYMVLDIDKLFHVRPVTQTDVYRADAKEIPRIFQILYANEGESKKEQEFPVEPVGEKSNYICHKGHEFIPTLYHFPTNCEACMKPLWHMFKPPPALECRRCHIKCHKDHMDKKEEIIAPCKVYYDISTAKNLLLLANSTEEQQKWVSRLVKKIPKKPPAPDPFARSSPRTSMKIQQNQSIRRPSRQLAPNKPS

Sequence of ROCK1 (Q13464 whole entry, species assumed): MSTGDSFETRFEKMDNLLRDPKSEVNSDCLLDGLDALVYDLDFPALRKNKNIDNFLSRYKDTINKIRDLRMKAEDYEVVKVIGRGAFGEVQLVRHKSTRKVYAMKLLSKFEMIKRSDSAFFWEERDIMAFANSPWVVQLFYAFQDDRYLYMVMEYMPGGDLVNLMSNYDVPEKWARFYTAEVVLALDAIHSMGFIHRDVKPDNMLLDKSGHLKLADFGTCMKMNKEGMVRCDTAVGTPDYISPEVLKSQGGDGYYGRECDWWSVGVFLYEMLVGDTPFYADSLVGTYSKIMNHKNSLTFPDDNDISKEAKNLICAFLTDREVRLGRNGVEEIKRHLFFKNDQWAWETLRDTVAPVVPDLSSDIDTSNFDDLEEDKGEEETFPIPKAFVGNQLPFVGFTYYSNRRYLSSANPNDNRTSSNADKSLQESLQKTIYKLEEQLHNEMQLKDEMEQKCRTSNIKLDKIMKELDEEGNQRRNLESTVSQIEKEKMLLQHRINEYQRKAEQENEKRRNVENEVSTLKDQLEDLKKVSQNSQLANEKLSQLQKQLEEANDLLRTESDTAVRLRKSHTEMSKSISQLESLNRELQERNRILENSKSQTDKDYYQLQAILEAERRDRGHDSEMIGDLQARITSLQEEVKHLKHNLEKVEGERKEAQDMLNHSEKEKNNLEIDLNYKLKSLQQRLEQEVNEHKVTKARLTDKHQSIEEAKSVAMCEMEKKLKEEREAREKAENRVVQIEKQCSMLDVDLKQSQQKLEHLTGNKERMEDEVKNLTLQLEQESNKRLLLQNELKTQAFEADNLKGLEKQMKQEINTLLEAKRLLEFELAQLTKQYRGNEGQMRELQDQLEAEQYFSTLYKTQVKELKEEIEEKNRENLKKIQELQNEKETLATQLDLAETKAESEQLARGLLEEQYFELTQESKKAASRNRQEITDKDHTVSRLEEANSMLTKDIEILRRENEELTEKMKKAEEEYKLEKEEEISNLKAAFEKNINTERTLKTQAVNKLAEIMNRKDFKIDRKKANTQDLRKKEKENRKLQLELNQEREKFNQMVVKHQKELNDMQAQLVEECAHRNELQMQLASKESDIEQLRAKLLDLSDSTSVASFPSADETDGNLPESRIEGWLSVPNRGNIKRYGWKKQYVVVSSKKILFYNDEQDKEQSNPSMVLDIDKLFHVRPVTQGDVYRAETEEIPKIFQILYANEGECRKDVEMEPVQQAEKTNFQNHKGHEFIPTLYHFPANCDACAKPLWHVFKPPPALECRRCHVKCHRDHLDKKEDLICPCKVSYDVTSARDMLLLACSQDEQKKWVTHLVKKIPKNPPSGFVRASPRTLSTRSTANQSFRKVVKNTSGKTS

SMILES | IC50 (ROCK1) [nM] | IC50 (ROCK2) [nM]
COc1cc(-c2cn[nH]c2)ccc1C(=O)NC(c1ccccc1F)C(C)(C)O (centres unmarked) [Example 212, N-[1-(2-fluorophenyl)-2-hydroxy-2-methylpropyl]-2-methoxy-4-(1H-pyrazol-4-yl)benzamide] | 37.3 | 7.32
COc1ccc(F)c(C(C)NC(=O)c2ccc(-c3c[nH]nc3C)cc2OC)c1 (centres unmarked) [Example 213, N-[1-(2-fluoro-5-methoxyphenyl)ethyl]-2-methoxy-4-(3-methyl-1H-pyrazol-4-yl)benzamide] | 15.6 | 5.16
COc1cccc(CNC(=O)c2ccc(-c3cn[nH]c3)cc2N)c1 [Example 214, 2-amino-N-[(3-methoxyphenyl)methyl]-4-(1H-pyrazol-4-yl)benzamide] | 131 | 32.3
COc1cc(-c2cn[nH]c2)ccc1C(=O)N[C@H](CO)[C@H](O)c1ccccc1 [Example 215, N-[(1R,2R)-1,3-dihydroxy-1-phenylpropan-2-yl]-2-methoxy-4-(1H-pyrazol-4-yl)benzamide] | 64.2 | 23.4
COc1cc(C(=O)N[C@@H](Cc2ccccc2)[C@H](O)CO)ccc1-c1cn[nH]c1 [Example 216, N-[(2S,3S)-3,4-dihydroxy-1-phenylbutan-2-yl]-3-methoxy-4-(1H-pyrazol-4-yl)benzamide] | 51.5 | 11
COc1cc(-c2cn[nH]c2)ccc1C(=O)N[C@@H](Cc1ccccc1)[C@H](O)CO [Example 217, N-[(2S,3S)-3,4-dihydroxy-1-phenylbutan-2-yl]-2-methoxy-4-(1H-pyrazol-4-yl)benzamide] | 15.4 | 12.9
COc1cc(-c2cn[nH]c2)ccc1C(=O)NC(c1ccccc1F)C(C)(C)O (centres unmarked) [Example 218, N-[1-(2-fluorophenyl)-2-hydroxy-2-methylpropyl]-2-methoxy-4-(1H-pyrazol-4-yl)benzamide] | 24.7 | 6.52
COc1cc(-c2cn[nH]c2)ccc1C(=O)NC(c1ccccc1F)C(C)(C)O (centres unmarked) [Example 219, N-[1-(2-fluorophenyl)-2-hydroxy-2-methylpropyl]-2-methoxy-4-(1H-pyrazol-4-yl)benzamide] | 585 | 201
Nc1cc(-c2cn[nH]c2)ccc1C(=O)NCCCc1ccccc1 [Example 220, 2-amino-N-(3-phenylpropyl)-4-(1H-pyrazol-4-yl)benzamide] | 321 | 201
COc1cc(C(=O)NC(C)c2c(F)cccc2Cl)ccc1-c1cn[nH]c1 (centres unmarked) [Example 221, N-[1-(2-chloro-6-fluorophenyl)ethyl]-3-methoxy-4-(1H-pyrazol-4-yl)benzamide] | 16.7 | 3.43
COc1cc(C(=O)NC2(c3ccccc3)CCC2)ccc1-c1cn[nH]c1 [Example 222, 3-methoxy-N-(1-phenyl-cyclobutyl)-4-(1H-pyrazol-4-yl)benzamide] | 146 | 26
COc1cc(-c2cn[nH]c2)ccc1C(=O)NC(C)c1c(F)cccc1Cl (centres unmarked) [Example 223, N-[1-(2-chloro-6-fluorophenyl)ethyl]-2-methoxy-4-(1H-pyrazol-4-yl)benzamide] | 59.6 | 14.7
COc1cc(C(=O)N[C@@H](c2ccccc2)[C@H](O)CO)ccc1-c1cn[nH]c1 [Example 224, N-[(1S,2S)-2,3-dihydroxy-1-phenylpropyl]-3-methoxy-4-(1H-pyrazol-4-yl)benzamide] | 8.55 | 1.98
COc1cc(-c2cn[nH]c2)ccc1C(=O)N[C@@H](c1ccccc1)[C@H](O)CO [Example 225, N-[(1S,2S)-2,3-dihydroxy-1-phenylpropyl]-2-methoxy-4-(1H-pyrazol-4-yl)benzamide] | 7.59 | 1.09
COc1cc(-c2cn[nH]c2)ccc1C(=O)NC(C)c1c(F)cccc1F (centres unmarked) [Example 226, N-[1-(2,6-difluorophenyl)ethyl]-2-methoxy-4-(1H-pyrazol-4-yl)benzamide] | 26.5 | 5.13
COc1cc(-c2cn[nH]c2)ccc1C(=O)NC(C)c1c(F)cccc1F (centres unmarked) [Example 227, N-[1-(2,6-difluorophenyl)ethyl]-2-methoxy-4-(1H-pyrazol-4-yl)benzamide] | > 2000 | 1200
COc1ccc(F)c(C(C)NC(=O)c2ccc(-c3cn[nH]c3)cc2OC)c1 (centres unmarked) [Example 228, N-[1-(2-fluoro-5-methoxyphenyl)ethyl]-2-methoxy-4-(1H-pyrazol-4-yl)benzamide] | 12.5 | 3.05
COc1ccc(F)c(C(C)NC(=O)c2ccc(-c3cn[nH]c3)cc2OC)c1 (centres unmarked) [Example 229, N-[1-(2-fluoro-5-methoxyphenyl)ethyl]-2-methoxy-4-(1H-pyrazol-4-yl)benzamide] | 182 | 76.3
COc1cc(-c2cn[nH]c2)ccc1C(=O)NCc1cccc(S(N)(=O)=O)c1 [Example 230, 2-methoxy-4-(1H-pyrazol-4-yl)-N-[(3-sulfamoyl-phenyl)methyl] benzamide] | 11.2 | 1.86
COc1cc(C(=O)NCc2cccc(S(N)(=O)=O)c2)ccc1-c1cn[nH]c1 [Example 231, 3-methoxy-4-(1H-pyrazol-4-yl)-N-[(3-sulfamoyl-phenyl)methyl] benzamide] | 15.2 | 0.99
COc1cc(C(=O)NC(CN)Cc2ccccc2)ccc1-c1cn[nH]c1 (centres unmarked) [Example 232, N-(1-amino-3-phenylpropan-2-yl)-3-methoxy-4-(1H-pyrazol-4-yl)benzamide] | 1.04 | 0.36
COc1cc(-c2cn[nH]c2)ccc1C(=O)NC(CN)Cc1ccccc1 (centres unmarked) [Example 233, N-(1-amino-3-phenylpropan-2-yl)-2-methoxy-4-(1H-pyrazol-4-yl)benzamide] | 4.6 | 2.53
COc1cc(C(=O)NCc2cccc(C(=O)NCC(C)(C)O)c2)ccc1-c1cn[nH]c1 [Example 234, N-({3-[(2-hydroxy-2-methylpropyl)carbamoyl]phenyl}methyl)-3-methoxy-4-(1H-pyrazol-4-yl)benzamide] | 3.24 | 0.46
COc1cc(C(=O)NCc2cccc(C(=O)N(C)C)c2)ccc1-c1cn[nH]c1 [Example 235, N-{[3-(dimethyl-carbamoyl)phenyl]methyl}-3-methoxy-4-(1H-pyrazol-4-yl)benzamide] | 499 | 93.7

The next lines start with the values.

IC50 (ROCK1) [nM] | IC50 (ROCK2) [nM] | SMILES
1.79 | 0.37 | COc1cc(C(=O)NCc2cccc(C(=O)NCC3CC3)c2)ccc1-c1cn[nH]c1 [Example 236, N-({3-[(cyclopropyl-methyl)carbamoyl]phenyl}methyl)-3-methoxy-4-(1H-pyrazol-4-yl)benzamide]
2.39 | 0.4 | CCNC(=O)c1cccc(CNC(=O)c2ccc(-c3cn[nH]c3)c(OC)c2)c1 [Example 237, N-{[3-(ethylcarbamoyl)phenyl]methyl}-3-methoxy-4-(1H-pyrazol-4-yl)benzamide]
2.44 | 0.32 | COc1cc(C(=O)NCc2cccc(C(=O)NC3CC3)c2)ccc1-c1cn[nH]c1 [Example 238, N-{[3-(cyclopropyl-carbamoyl)phenyl]methyl}-3-methoxy-4-(1H-pyrazol-4-yl)benzamide]
61.4 | 11.5 | Cc1cc(C(=O)NCc2cccc(C(=O)O)c2)ccc1-c1cn[nH]c1 [Example 239, 3-({[3-methyl-4-(1H-pyrazol-4-yl)phenyl] formamido}methyl) benzoic acid]
11.8 | 2.61 | CCNC(=O)c1cccc(CNC(=O)c2ccc(-c3cn[nH]c3)c(C)c2)c1 [Example 240, N-{[3-(ethylcarbamoyl)phenyl]methyl}-3-methyl-4-(1H-pyrazol-4-yl)benzamide]
1.54 | 0.85 | CCN1CCC[C@H]1CNC(=O)c1cccc(CNC(=O)c2ccc(-c3cn[nH]c3)c(OC)c2)c1 [Example 241, N-{[3-({[(2S)-1-ethylpyrrolidin-2-yl]methyl}carbamoyl)phenyl]methyl}-3-methoxy-4-(1H-pyrazol-4-yl)benzamide]
39.2 | 4.41 | COc1cc(C(=O)NCc2ccc(F)c(C(=O)O)c2)ccc1-c1cn[nH]c1 [Example 242, 2-fluoro-5-({[3-methoxy-4-(1H-pyrazol-4-yl)phenyl] formamido}methyl) benzoic acid]
3.38 | 0.5 | Cc1cc(C(=O)NCc2cccc(C(=O)NCC3CC3)c2)ccc1-c1cn[nH]c1 [Example 243, N-({3-[(cyclopropyl-methyl)carbamoyl]phenyl}methyl)-3-methyl-4-(1H-pyrazol-4-yl)benzamide]
4.22 | 0.86 | Cc1cc(C(=O)NCc2cccc(C(=O)NC3CC3)c2)ccc1-c1cn[nH]c1 [Example 244, N-{[3-(cyclopropyl-carbamoyl)phenyl]methyl}-3-methyl-4-(1H-pyrazol-4-yl)benzamide]
2.46 | 0.71 | Cc1cc(C(=O)NCc2cccc(C(=O)NC[C@H]3CCCN3)c2)ccc1-c1cn[nH]c1 [Example 245, 3-methyl-4-(1H-pyrazol-4-yl)-N-[(3-{[(2R)-pyrrolidin-2-ylmethyl]carbamoyl}phenyl)methyl] benzamide]
0.26 | 0.23 | COc1cc(C(=O)NCc2cccc(C(=O)Nc3nc4c(s3)CNCC4)c2)ccc1-c1cn[nH]c1 [Example 246, 3-methoxy-4-(1H-pyrazol-4-yl)-N-{[3-({4H,5H,6H, 7H-[1,3]thiazolo[5,4-c]pyridin-2-yl}carbamoyl)phenyl]methyl} benzamide]
0.39 | 0.33 | COc1cc(C(=O)NCc2cccc(C(=O)Nc3nc4c(s3)CN(C)CC4)c2)ccc1-c1cn[nH]c1 [Example 247, 3-methoxy-N-{[3-({5-methyl-4H, 5H,6H,7H-[1,3]thiazolo [5,4-c]pyridin-2-yl}carbamoyl)phenyl]methyl}-4-(1H-pyrazol-4-yl)benzamide]
0.43 | 0.19 | COc1cc(C(=O)NCc2cccc(C(=O)NC3CCN(C)CC3)c2)ccc1-c1cn[nH]c1 [Example 248, 3-methoxy-N-({3-[(1-methylpiperidin-4-yl)carbamoyl]phenyl}methyl)-4-(1H-pyrazol-4-yl)benzamide]
